The subject of this experiment is fucosyltransferase. As to the kind of experiment: Feedback experiment: glycan profile of the monoclonal antibody from parallel CHO-bioreactor cultivations after feeding the inhibitor. The note with it: Day 12 (end of cultivation), inhibitor in feed once per day from day 4; average of all 3 cultivations; relative to total measured glycans. Format: cell-based. The text has this: In said experiment, parallel CHO-bioreactor cultivations producing a monoclonal antibody were started.
Values are in relative to the total amount of measured glycans. The different glycan profile abbreviations are explained in FIG. 7B. […] A decision was taken to reduce the fucosylated species, for example in order to increase ADCC potency (see e.g. Peipp et al 2008).
For this reason, the feeding strategy was adapted to contain an inhibitor of fucosyltransferase (2F-Peracetly-Fucose) in the feed (73). The feed was administered once per day throughout the experiment. Process samples were taken at the end of cultivation (day 12) and analyzed to check for the effect of the altered feeding strategy and compared to data from standard cultivations (74).

For the molecule `CC(=O)OC1O[C@@H](C)[C@@H](OC(C)=O)[C@@H](OC(C)=O)[C@@H]1F` (stereo partly drawn) [2F-Peracetly-Fucose, 2F-Peracetyl-Fucose], the “percentage distribution of analyzed glycans: FA2” value was 7,3%, the “percentage distribution of analyzed glycans: FA2G1” value is 2,6% and the “percentage distribution of analyzed glycans: FA2G2” value is listed as 0,26%.

(Values after patent publication US20220177818A1, “OPERATION PROCESS FOR A CELL CULTIVATION SYSTEM” (THE AUTOMATION PARTNERSHIP (CAMBRIDGE ) LTD., priority 2019, published 2022).)
